Laboratory results published in patent US5219741A, “Method of making L-proline using an N-acyl-L-protine acylase” (priority 1990, dated 1993).
“Also recorded” adds a separate entry of the source. Where two headings read alike, the source gives them in different places.

Key:
[1] = test system: Comamonas testosteroni DSM 5416; assay: Growth of the strain in culture medium (OD600); format: cell-based
Description: Strains which appeared uniform according to the colony morphology and the microscopic image were then cultivated in 100 ml liquid medium (500 ml Erlenmeyer flask with top and 4 lateral baffles) at 30° C. on a rotary agitator machine at 200 rpms. The culture medium had the following composition: […]
(§1) The carbon source of the culture medium with a concentration of 4 g/l was varied and the influence on growth and acylase formation determined.
(§2) The concentration of N-acetyl-L-proline was varied in a range of 1 g/l-5 g/l in steps of 1 g/l in the culture medium as described in Example 1.
(§3) The concentration of (NH4)2 SO4 was varied in a range of 1 g/l-5 g/l in steps of 1 g/l in the culture medium as described in Example 1.
(§4) The concentration of yeast extract was varied in a range of 1 g/l-5 g/l in steps of 1 g/l in the culture medium as described in Example 1.
(§5) The N-acetyl-L-proline concentration was reduced to 0.2 to 1.0 g/l in the culture medium as described in Example 1 and 4 g/l Na acetate were additionally added.
(§6) The method described above under f) was followed. However, the inductor, N-acetyl-L-proline, was not added to the nutrient medium until the late exponential growth phase after an incubation time of 12 hours.
(§7) The method described above under f) was followed. In addition to N-acetyl-L-proline, various N-acetyl- and N-chloroacetyl amino acids were added to the nutrient medium in a concentration of 1 g/l.

[2] = test system: N-acyl-L-proline acylase formation in Comamonas testosteroni DSM 5416; assay: Acylase formation: specific activity of N-acyl-L-proline acylase in crude extract; format: cell-based
Description: After 24 to 48 hours, the cell-containing nutrient medium was centrifuged (15 min., 4,500 g in a cooling centrifuge), the cells were washed twice with 0.9% (w/v) NaCl solution and resuspended in 10 ml 0.1M tris-HCl buffer, pH 7.0.
The microorganisms of this suspension were macerated by ultrasound treatment (Sonifier-Cell Disrupter B-30 of the firm Branson Sonic Power Co., Danbury, Conn., USA) (2 minutes pulsating, corresponding to 1 minute of pure ultrasonic radiation. The cell fragments and non-macerated cells were centrifuged in a cooled centrifuge 30 minutes at 40,000 g and 5° C. The clear supernatant (=crude extract) was used in an enzyme test.
The reaction was started by adding crude extract and the reaction batches customarily incubated for 10 minutes at 30° C. The incubation time and the amount of crude extract were selected so that the linearity range of the enzymatic reaction and of the subsequent proline detection were not exceeded.
(§8) The enzymatic reaction was interrupted by pipetting 50 μl of the enzyme sample into 1.25 ml 100% acetic acid. Subsequently, 0.45 ml 0.1M tris-HCl buffer pH 7.0 and 1.25 ml ninhydrin reagent (3 g ninhydrin dissolved by heating in a mixture of 60 ml 100% acetic acid and 40 ml 6M phosphoric acid) were added. The ninhydrin reagent was freshly prepared daily. The test tubes were loosely closed with screw-on caps, incubated 30 minutes at 100° C. and subsequently cooled down in an ice bath.
(§9) The L-proline, liberated by the enzymatic hydrolysis, forms a red dye with ninhydrin at 100° C. The absorption of the red dye was measured in a spectrophotometer at 480 nm relative to a control batch without crude extract (=substrate blank). The concentration of the L-proline produced was determined using a straight calibration line with L-proline in a range of 5 to 100 nmoles per 50 μl specimen. The enzyme activity was indicated in international units; thus, one unit (U) corresponded to an amount of 1 μmole L-proline produced per minute.
The protein determination was carried out with a protein-determination kit of the firm Pierce Chemical Co., Rockford, Ill., USA, according to Bradford, Anal. Biochem. 72, pp. 248-254 (1976).
as §1, §2, §3, §4, §5, §6, §7

[3] = test system: 1,10-phenanthroline-inactivated acylase (apoenzyme); assay: Influence of cations on the 1,10-phenanthroline-inactivated acylase; format: biochemical, Comamonas testosteroni DSM 5416; settings: for Activity (%): inactivated enzyme after gel filtration + cation 1 mM, native enzyme = 100, no agent = 21; for Influence on the apoenzyme (in words): 1,10-phenanthroline-inactivated acylase
Description: FPLC/Mono Q purified enzyme was incubated for 24 hours at 4° C. in the presence of 1 mM 1,10-phenanthroline. Subsequently, enzyme and the chelating agent 1,10-phenanthroline were separated by gel filtration via Sephadex G-25M (PD-10, firm Pharmacia/LKB, Uppsala, Sweden). The enzyme-containing fractions were combined and the activity determined without and in the presence of various cations (1 mM).

[4] = test system: N-acyl-L-proline acylase; format: biochemical, Comamonas testosteroni DSM 5416; settings: native enzyme; for Activity (%): no agent = 100
Description: as §8, §9
The influence of various chemical agents as well as metal cations and anions on the reaction speed of the hydrolytic splitting of N-acetyl-L-proline was determined at 30° C. in a reaction batch with the following composition: […]
The enzyme was pre-incubated for 10 minutes at 30° C. with the compound before the addition of substrate to start the reaction.
The enzyme was pre-incubated for 10 minutes at 30° C. with the agent before the substrate was added to start the reaction.
The enzyme was pre-incubated 10 minutes at 30° C. with the agent before the substrate was added to start the reaction. The concentration of the anions was 10 mM in each instance.

[5] = test system: N-acyl-L-proline acylase; assay: Substrate specificity: hydrolysis of N-acyl amino acids and proline derivatives; format: biochemical, Comamonas testosteroni DSM 5416; settings: for Rel. activity (%): 20 mM substrate 1.0 ml in 2.0 ml batch, 30° C., pH 7.0, N-acetyl-L-proline = 100%, amino-acid analyzer
Description: The activity of acylase was determined with various N-acetyl-L-amino acids and N-chloroacetyl-L-amino acids in a reaction batch with the following composition:
The reaction temperature was 30° C. and the incubation time 15 minutes to 24 hours. 0.2 ml samples of the reaction batch in each instance were mixed at different times with 0.2 ml 10% (w/v) trichloroacetic acid and the denatured protein centrifuged off for 10 minutes at 11,000 rpms in a table centrifuge. The supernatant was diluted with a 0.1M Na citrate buffer pH 2.2 with 25% (v/v) 2.2-thiodiethanol and 0.1% (v/v) phenol 1:5 and 1:50 respectively. The amino acids released were quantitatively detected by an amino-acid analyzer LC 5001 of the firm Biotronic, Maintal, Federal Republic of Germany. In Table 16, the substrates marked with * and the corresponding products were quantified by means of HPLC.
The activity of the acylase was determined with various proline derivatives as under a).

[6] = carbon source 4 g/l in culture medium
[7] = inductor 1 g/l + 4 g/l Na acetate, 24 hours
[8] = (NH4)2 SO4 1 g/l in culture medium, 23 hours
[9] = (NH4)2 SO4 2 g/l in culture medium, 23 hours
[10] = (NH4)2 SO4 3 g/l in culture medium, 23 hours
[11] = (NH4)2 SO4 4 g/l in culture medium, 23 hours
[12] = (NH4)2 SO4 5 g/l in culture medium, 23 hours

CC(C)C[C@H](N)C(=O)O [L-leucine]
Growth (OD600) [1, 6]: 2.6 OD600
Spec. activity (U/mg) [2, 6]: < 0.01 U/mg

CC(=O)C(=O)O [Pyruvate]
Growth (OD600) [1, 6]: 2.4 OD600
Spec. activity (U/mg) [2, 6]: < 0.01 U/mg

CCC(=O)O [Propionate]
Growth (OD600) [1, 6]: 1.9 OD600
Spec. activity (U/mg) [2, 6]: < 0.01 U/mg

phenylacetate
Growth (OD600) [1, 6]: No growth

N[C@@H](CC(=O)O)C(=O)O [L-aspartate]
Growth (OD600) [1, 6]: 2.0 OD600
Spec. activity (U/mg) [2, 6]: < 0.01 U/mg

[Cl-].[Cl-].[Sr+2] [SrCl2]
Activity (%) [3]: 23%
Activity (%) ([4]; metal cation salt 1 mM): 104%
Activity (%) ([4]; metal cation salt 10 mM): 100%

O=S(=O)([O-])[O-].[Fe+2] [FeSO4]
Activity (%) [3]: 12%
Activity (%) ([4]; metal cation salt 1 mM): 20%

[Cl-].[Cl-].[Co+2] [CoCl2]
Influence on the apoenzyme (in words) [3]: activating action
Activity (%) [3]: 80%
Activity (%) ([4]; metal cation salt 1 mM): 103%
Activity (%) ([4]; metal cation salt 10 mM): 92%

CSCC[C@H](NC(=O)CCl)C(=O)O [N-chloroacetyl-L-methionine]
Growth (OD600) [1, 7]: 2.19 OD600
Spec. activity (U/mg) [2, 7]: < 0.01 U/mg
Hydrolysis by the acylase (in words) [5]: hydrolyzes; also recorded: reacted at a distinctly lower speed
Rel. activity (%) [5]: 17.1%

[Ba+2].[Cl-].[Cl-] [BaCl2]
Activity (%) [3]: 18%
Activity (%) ([4]; metal cation salt 1 mM): 100%
Activity (%) ([4]; metal cation salt 10 mM): 99%

OC[C@H]1O[C@@](CO)(O[C@H]2O[C@H](CO)[C@@H](O)[C@H](O)[C@H]2O)[C@@H](O)[C@@H]1O [saccharose]
Growth (OD600) [1, 6]: No growth

CC(=O)O [Acetate]
Growth (OD600) [1, 6]: 2.3 OD600
Acylase formation / induction (in words) [2]: not repressed
Spec. activity (U/mg) [2, 6]: < 0.01 U/mg

O=[N+]([O-])[O-].O=[N+]([O-])[O-].[Ni+2] [Ni(NO3)2]
Activity (%) [3]: 21%
Activity (%) ([4]; metal cation salt 1 mM): 94%
Activity (%) ([4]; metal cation salt 10 mM): 75%

O=C[C@H](O)[C@@H](O)[C@H](O)[C@H](O)CO [glucose]
Growth (OD600) [1, 6]: No growth

N[C@@H](Cc1c[nH]cn1)C(=O)O [Lhistidine]
Growth (OD600) [1, 6]: No growth

O=S(=O)([O-])[O-].[Zn+2] [ZnSO4]
Influence on the apoenzyme (in words) [3]: activating action
Activity (%) [3]: 54%
Activity (%) ([4]; metal cation salt 1 mM): 77%
Activity (%) ([4]; metal cation salt 10 mM): 32%
Influence on the acylase activity (in words) [4]: inhibiting action

CC(C)[C@H](NC(=O)CCl)C(=O)O [N-chloroacetyl-L-valine]
Growth (OD600) [1, 7]: 2.50 OD600
Spec. activity (U/mg) [2, 7]: < 0.01 U/mg
Hydrolysis by the acylase (in words) [5]: hydrolyzes; also recorded: reacted at a distinctly lower speed
Rel. activity (%) [5]: 14.1%

[Ca+2].[Cl-].[Cl-] [CaCl2]
Activity (%) [3]: 17%
Activity (%) ([4]; metal cation salt 1 mM): 100%
Activity (%) ([4]; metal cation salt 10 mM): 91%

[Cl][Fe]([Cl])[Cl] [FeCl3]
Activity (%) [3]: 5%
Activity (%) ([4]; metal cation salt 1 mM): 83%
Activity (%) ([4]; metal cation salt 10 mM): 58%

O=C(O)CC(O)(CC(=O)O)C(=O)O [citrate]
Growth (OD600) [1, 6]: No growth

CCCC(=O)O [Butyrate]
Growth (OD600) [1, 6]: 1.8 OD600
Spec. activity (U/mg) [2, 6]: < 0.01 U/mg

CC(=O)N[C@@H](C)C(=O)O [N-acetyl-L-alanine]
Growth (OD600) [1, 7]: 2.28 OD600
Spec. activity (U/mg) [2, 7]: < 0.01 U/mg
Hydrolysis by the acylase (in words) [5]: hydrolyzes; also recorded: reacted at a distinctly lower speed
Rel. activity (%) [5]: 9.3%

O=C(CCl)N[C@@H](Cc1ccccc1)C(=O)O [ClAc--L--Phe]
Growth (OD600) [1, 7]: 2.89 OD600
Spec. activity (U/mg) [2, 7]: < 0.01 U/mg
Rel. activity (%) [5]: 1.0%

OC[C@H]1O[C@H](O[C@H]2[C@H](O)[C@@H](O)[C@H](O)O[C@@H]2CO)[C@H](O)[C@@H](O)[C@@H]1O [maltose]
Growth (OD600) [1, 6]: No growth

OC[C@H]1O[C@@H](O[C@H]2[C@H](O)[C@@H](O)C(O)O[C@@H]2CO)[C@H](O)[C@@H](O)[C@H]1O (some centres unmarked) [lactose]
Growth (OD600) [1, 6]: No growth

N.N.O=S(=O)(O)O [(NH4)2 SO4]
Growth (OD600) [1, 8]: 5.24 OD600
Growth (OD600) [1, 9]: 5.67 OD600
Growth (OD600) [1, 10]: 5.47 OD600
Growth (OD600) [1, 11]: 5.44 OD600
Growth (OD600) [1, 12]: 5.47 OD600
Optimum concentration in the culture medium for acylase formation [2]: 2 g/L
Spec. activity (U/mg) [2, 8]: 1.71 U/mg
Spec. activity (U/mg) [2, 9]: 1.91 U/mg
Spec. activity (U/mg) [2, 10]: 1.53 U/mg
Spec. activity (U/mg) [2, 11]: 1.59 U/mg
Spec. activity (U/mg) [2, 12]: 1.32 U/mg

O=C(O)CC(O)C(=O)O (centres unmarked) [Malate]
Growth (OD600) [1, 6]: 3.4 OD600
Spec. activity (U/mg) [2, 6]: < 0.01 U/mg

O=C[C@H](O)[C@@H](O)[C@H](O)CO [xylose]
Growth (OD600) [1, 6]: No growth

CC(O)C(=O)O (centres unmarked) [Lactate]
Growth (OD600) [1, 6]: 3.0 OD600
Spec. activity (U/mg) [2, 6]: < 0.01 U/mg

OCC(O)CO [Glycerol]
Growth (OD600) [1, 6]: 1.1 OD600
Spec. activity (U/mg) [2, 6]: < 0.01 U/mg

O=C(CCl)N[C@@H](Cc1ccc(O)cc1)C(=O)O [ClAc--L--Tyr]
Growth (OD600) [1, 7]: 2.76 OD600
Spec. activity (U/mg) [2, 7]: < 0.01 U/mg
Rel. activity (%) [5]: 1.0%

O=C(CO)[C@@H](O)[C@H](O)[C@H](O)CO [fructose]
Growth (OD600) [1, 6]: No growth

O=C(O)[C@@H]1CCCN1 [L-proline]
Growth (OD600) [1, 6]: 3.9 OD600
Spec. activity (U/mg) [2, 6]: < 0.01 U/mg

N=C(N)NCCC[C@H](N)C(=O)O [Larginine]
Growth (OD600) [1, 6]: No growth

O=C[C@@H](O)[C@@H](O)[C@H](O)[C@H](O)CO [mannose]
Growth (OD600) [1, 6]: No growth

N[C@@H](Cc1c[nH]c2ccccc12)C(=O)O [Ltryptophane]
Growth (OD600) [1, 6]: No growth

N[C@@H](CO)C(=O)O [Lserin]
Growth (OD600) [1, 6]: No growth

CC(C)C[C@H](NC(=O)CCl)C(=O)O [ClAc--L--Leu]
Growth (OD600) [1, 7]: 2.65 OD600
Spec. activity (U/mg) [2, 7]: < 0.01 U/mg
Rel. activity (%) [5]: 1.9%
